Measured values from patent US20230302104A1, “TREATMENT AND/OR PREVENTION OF A DISEASE OR A SYNDROME RELATED TO A VIRUS INFECTION” (priority 2020, published 2023).

Columns and labels:
[1] = test system: SARS-CoV-2 spike pseudotyped lentivirus entry in HeLa cells overexpressing TMPRSS2; format: cell-based; settings: 10 µM
[2] = test system: SARS-CoV-2 spike pseudovirus entry in ACE2 overexpressing A549 human lung alveolar basal epithelium cells; format: cell-based

Substance	inhibitory effect on SARS-CoV-2 pseudoviral cell-entry [1]	effect on SARS-CoV-2 pseudoviral entry in combination with IFN-beta-1a [2]	SARS-CoV-2 pseudovirus entry [2]
plasma derived AAT	no inhibitory effect	additive inhibitory effect	–
rhAAT	–	–	inhibits viral entry of several viruses
